Experiments:
Format in all cases: cell-based, bovine
[1] = test system: Caspase-3 in C-PAE cells; assay: Caspase-3 assay; details: TNF-α 80 ng/ml
Procedure: Tumstatin also altered cell morphology of C-PAE cells as monitored by phase contrast microscopy. After treating cells with 20 μg/ml of Tumstatin in the presence of 10% FCS for 24 hours on fibronectin-coated plates, the typical morphological features of apoptotic cells, membrane blebbing, cytoplasmic shrinkage, and chromatin condensation could be observed. […] Caspase-3 assay: Caspase-3 (CPP32) is an intracellular protease activated at the early stage of apoptosis, and initiates cellular breakdown by degrading structural and DNA repair proteins (Casciola-Rosen, L. et al., 1996, J. Exp. Med. 183:1957-64; Salvesen, G. S. et al., 1997, Cell 91:443-46). The protease activity of Caspase-3 was measured spectrophotometrically by detection of the chromophore (p-nitroanilide) cleaved from the labeled substrate (DEVD-pNA). C-PAE cells or PC-3 cells (0.5×10^6 per well) were plated onto a 6-well plate precoated with fibronectin (10 μg/ml) in DMEM supplemented with 10% FCS, and incubated overnight. The next day, the medium was replaced with DMEM containing 2% FCS and then incubated overnight at 37° C. Then cells were then stimulated with bFGF (3 ng/ml) in DMEM supplemented with 2% FCS, and also containing either TNF-α (80 ng/ml, positive control) or Tumstatin (10 μg/ml), and incubated for 24 hours. Controls received PBS buffer. After 24 hours, the supernatant cells were collected, and attached cells were trypsinized and combined with the supernatant cells. Cells were counted and resuspended in cell lysis buffer (Clontech) at a concentration of 4×10^7 cells/ml. The rest of the protocol followed the manufacturer's instructions (Clontech). A specific inhibitor of Caspase-3, DEVD-fmk (Asp-Glu-Val-Asp-fluoromethyl ketone) was used to confirm the specificity of the assay. The absorbance was measured in a microplate reader (Bio-Rad, Hercules, Calif., USA) at 405 nm. The assay was repeated three times for each cell type.
Apoptosis was also evaluated by measuring Caspase-3 activity as described in Example 27, above. The results are shown in FIG. 35, which is a histogram showing Caspase-3 activity as a measure of absorbance at OD405 (y-axis) of C-PAE cells treated (x-axis) with 5 μg/ml Tum-1, Tum-2, Tum-3 or Tum-4, or 80 ng/ml TNF-α or PBS buffer (control).
Caspase-3 activity was also assayed as described above. DEVD-fmk, a specific caspase-3 inhibitor, was used as an internal control to show specificity of Tumstatin-44-131. TNF-α (80 ng/ml) was used as a positive control. The experiments were repeated three times.
The protease activity of Caspase-3 in cells treated with T3 peptide was measured spectrophotometrically by detection of the chromophore (p-nitroanilide) cleaved from the labeled substrate (DEVD-pNA). […] In PC-3 nonendothelial cells, there was no difference in Caspase-3 activity between control treatments and T3 peptide-treated cells.

[2] = test system: Caspase-3 in C-PAE cells; assay: Caspase-3 assay; details: 20 μg/ml Tumstatin; TNF-α positive control
[3] = test system: C-PAE cells; assay: Annexin V-FITC apoptosis assay; details: 5 μg/ml Arresten, 40 ng/ml TNFα
Procedure: Fifty thousand C-PAE cells were added to each well of a 6-well tissue culture plate in DMEM supplemented with 10% FBS for 12 hours. Fresh medium together and either 5 μg/ml Arresten or 40 ng/ml TNFα (positive control) was added at 2, 4 and 6 hour time points. Control wells received an equal of volume of PBS. Detached cells and adherent cells were pooled together and centrifuged at 1500 rpm. Cells were washed with binding buffer (Clontech, Palo Alto, Calif., USA), and phosphatidyl-serine (PS) externalization, an indicator of apoptosis, was measured by labeling with FITC-labeled annexin V (Clontech) according to manufacturer's instructions. Annexin-FITC labeled cells were counted using a FACStar Plus flow cytometer (Becton-Dickinson, Waltham, Mass., USA). For each treatment, 10,000 cells were counted and stored. […] Relative to controls, the percentage of annexin-V-stained (apoptotic) cells increased to about 27% at 2 hours, and near 20% at 4 and 6 hours for the positive control, TNFα. For Arresten-treated cells, the percentage of apoptotic cells was about 18% at 2 hours, and about 23% at 4 and 6 hours.
Annexin V-FITC Labeling. In order to establish apoptosis as the potential mode of action for Canstatin, Annexin V-FITC was used to label externalized phosphatidylserine (PS), to assess apoptotic cells. 0.5×10^6 C-PAE cells, PC-3, 786-O and HEK 293 cells were added to each well of a 6 well tissue culture plate in 10% FBS supplemented DMEM (BioWhittaker, Walkersville, Md., USA) overnight. The next day, fresh medium was added to all wells together with 40 ng/ml TNF-α (positive control) or 15 μg/ml Canstatin. Control cells received an equal volume of PBS. After 24 hours of treatment, medium containing detached cells was collected and attached cells were trypsinized and combined with detached cells and centrifuged at 3,000×g. Cells were then washed and phosphatidyl-serine externalization (an early apoptotic indicator) was measured by labeling with FITC-labeled annexin V (Clontech, Palo Alto, Calif., USA) according to the manufacturer's instructions. Annexin V-FITC-labeled cells were counted using a FAC Star Plus flow cytometer (Becton-Dickenson, Waltham, Mass., USA). For each treatment 15,000 cells were counted and stored in listmode.
C-PAE cells (0.5×10^6 per well) were seeded onto a 6-well plate in 10% FCS supplemented DMEM. The next day, fresh medium containing 10% FCS was added with either 80 ng/ml of TNF-α (positive control) or Tumstatin ranging from 0.02 to 20 μg/ml. Control cells received an equal volume of PBS. After 18 hours of treatment, medium containing floating cells was collected, and attached cells were trypsinized and centrifuged together with floating cells at 3,000×g. The cells were then washed in PBS and resuspended in binding buffer (10 mM HEPES/NaOH, pH 7.4, 140 mM NaCl, 2.5 mM CaCl2). Annexin V-FITC (Clontech, Palo Alto, Calif., USA) was added to a final concentration of 150 ng/ml, and the cells were incubated in the darkness for 10 minutes. The cells were washed again in PBS and resuspended in binding buffer. Annexin V-FITC labeled cells were counted using a FACStar Plus flow cytometer (Becton-Dickinson, Waltham, Mass., USA). For each treatment, 15,000 cells were counted and stored in listmode.
Apoptosis was measured by Annexin V-FITC assay, using the ApoAlert kit (Clontech, Palo Alto, Calif., USA). Propidium iodide was used to stain the nuclei of cells that had died by ways other than apoptosis.
The assay was performed as described above, by treating C-PAE cells with Tumstatin-44-131 for 18 hours. Control cells received PBS.

**Q.** TNF-α [reference compound] was tested. Which “fold increase in Caspase-3 activity” value ([1]; 10 μg/ml E. Coli-expressed Tumstatin-44-131) did it give?
**A.** The value was 4.5 fold.

**Q.** And the “fold increase in Caspase-3 activity” value ([1]; 50 μg/ml T3 peptide)?
**A.** Its value is 4.5 fold.

**Q.** What about the “fold increase in Caspase-3 activity” value [2] of the same substance?
**A.** Its value is 1.7 fold.

**Q.** What about the “percentage of annexin-V-stained (apoptotic) cells” value ([3]; 4 and 6 hours) of the same substance?
**A.** The value was roughly 20%.

**Q.** And the “percentage of annexin-V-stained (apoptotic) cells” value ([3]; 2 hours)?
**A.** The value was “about 27%”.
